From US20240158446A1, “CYCLIC COMPOUND HAVING SELECTIVE INHIBITORY ACTION ON KRAS OVER HRAS AND NRAS” (CHUGAI SEIYAKU KABUSHIKI KAISHA, priority 2021, published 2024) come the findings set out here.

Where a SMILES comes first, the peptide text is derived from it. Bridges are numbered along the chain shown (N, C = ends). [ ]: non-standard residue; d: D form. The star is where a group is joined. hPhe(3-Cl-4-CF3) = N[C@@H](CCc1ccc(C(F)(F)F)c(Cl)c1)C(=O)O; NEtPhe(4-Me) = CCN[C@@H](Cc1ccc(C)cc1)C(=O)O; NMeGly(cPent) = CN[C@H](C(=O)O)C1CCCC1; Hyp = O=C(O)[C@@H]1C[C@@H](O)CN1; NMeD = CN[C@@H](CC(=O)O)C(=O)O; NMeL = CN[C@@H](CC(C)C)C(=O)O; Morpholide = C1CN(*)CCO1; Ac5c = NC1(C(=O)O)CCCC1; X51 = C1CCC(*)OC1; Sar = CNCC(=O)O

Assay [1] deals with GDP-bound NRAS wild-type protein (Homo sapiens, UniProt P01111). Description: Binding to NRAS by surface plasmon resonance (SPR), Single Cycle Kinetics. The following applies: for NRAS/KRAS (ratio of KD value with respect to GDP-bound NRAS wild-type protein to KD value with respect to KRAS): SPR KD ratio NRAS/KRAS, class symbols. (In general: Surface plasmon resonance follows binding to a sensor surface in real time, without labels.)
Chain of GDP-bound NRAS wild-type protein (P01111 whole entry): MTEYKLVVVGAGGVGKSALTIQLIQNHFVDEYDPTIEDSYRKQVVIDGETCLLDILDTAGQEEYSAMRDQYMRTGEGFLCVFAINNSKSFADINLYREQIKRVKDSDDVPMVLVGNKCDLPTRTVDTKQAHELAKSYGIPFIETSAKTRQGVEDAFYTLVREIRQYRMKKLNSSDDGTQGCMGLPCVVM

Assay [2] concerns the target GDP-bound HRAS wild-type protein (Homo sapiens, UniProt P01112). Description: Binding to HRAS by surface plasmon resonance (SPR), Single Cycle Kinetics. The following applies: for HRAS/KRAS (ratio of KD value with respect to GDP-bound HRAS wild-type protein to KD value with respect to KRAS): SPR KD ratio HRAS/KRAS, class symbols.
The mark [3] stands for this setting: SPR, GDP-bound NRAS wild-type protein vs GDP-bound KRAS wild-type protein.
Setting [4] is: SPR, GDP-bound HRAS wild-type protein vs GDP-bound KRAS wild-type protein.

Chain of GDP-bound HRAS wild-type protein (P01112 whole entry): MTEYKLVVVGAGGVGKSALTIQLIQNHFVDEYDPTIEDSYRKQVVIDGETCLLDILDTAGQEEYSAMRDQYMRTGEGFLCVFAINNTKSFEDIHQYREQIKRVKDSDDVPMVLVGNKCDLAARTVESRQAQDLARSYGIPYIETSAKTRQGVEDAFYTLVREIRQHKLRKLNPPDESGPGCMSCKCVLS

For the compound `CCC[C@H]1C(=O)N[C@@H]([C@@H](C)CC)C(=O)N(C2CC2)CC(=O)N(C)[C@H]2C/C=C\CCN(C2=O)[C@@H](Cc2ccc(C)cc2)C(=O)N(C)CC(=O)N[C@@H](CCc2ccc(C3CC3)c(Cl)c2)C(=O)N2C[C@H](OCC)C[C@H]2C(=O)NC2(CC(C)(C)C2)C(=O)N(C)[C@@H](C2CCCC2)C(=O)N(C)[C@H](C(=O)N(C)C)CC(=O)N1C` [PP2885], the “NRAS/KRAS (ratio of KD value with respect to GDP-bound NRAS wild-type protein to KD value with respect to KRAS)” value in assay [1] was “A (a compound having 10 or more and less than 20 is denoted as A)”. Besides, in assay [2], the “HRAS/KRAS (ratio of KD value with respect to GDP-bound HRAS wild-type protein to KD value with respect to KRAS)” value is “A (a compound having 10 or more and less than 20 is denoted as A)”.
With `CCC[C@H]1C(=O)N[C@@H]([C@@H](C)CC)C(=O)N(C)CC(=O)N(C)[C@H]2C/C=C\CCN(C2=O)[C@@H](Cc2ccc(C(F)(F)F)cc2)C(=O)N(C)CC(=O)N[C@@H](CCc2cc(F)c(C(F)F)c(OC)c2)C(=O)N2C[C@H](OCC)C[C@H]2C(=O)NC2(CC(C)(C)C2)C(=O)N(C)[C@@H](C2CCCC2)C(=O)N(C)[C@H](C(=O)N(C)C)CC(=O)N1C` [PP2867], in assay [1], the “NRAS/KRAS (ratio of KD value with respect to GDP-bound NRAS wild-type protein to KD value with respect to KRAS)” value was “A (a compound having 10 or more and less than 20 is denoted as A)”. Also, the “HRAS/KRAS (ratio of KD value with respect to GDP-bound HRAS wild-type protein to KD value with respect to KRAS)” value in assay [2] is “A (a compound having 10 or more and less than 20 is denoted as A)”.
On to `CCC[C@H]1C(=O)N[C@@H]([C@@H](C)CC)C(=O)N(C2CC2)CC(=O)N(C)[C@H]2C/C=C\CCN(C2=O)[C@@H](Cc2ccc(C)cc2)C(=O)N(C)CC(=O)N[C@@H](CCc2ccc(C3CC3)c(F)c2)C(=O)N2C[C@H](OCC)C[C@H]2C(=O)NC2(CC(C)(C)C2)C(=O)N(C)[C@@H](C2CCCC2)C(=O)N(C)[C@H](C(=O)N(C)C)CC(=O)N1C` [PP2884], for which the “NRAS/KRAS (ratio of KD value with respect to GDP-bound NRAS wild-type protein to KD value with respect to KRAS)” value in assay [1] was “A (a compound having 10 or more and less than 20 is denoted as A)”. Besides, in assay [2], the “HRAS/KRAS (ratio of KD value with respect to GDP-bound HRAS wild-type protein to KD value with respect to KRAS)” value is “A (a compound having 10 or more and less than 20 is denoted as A)”.
`CC[C@H](C)[C@@H]1NC(=O)[C@H](CC(C)C)N(C)C(=O)C[C@@H](C(=O)N2CCOCC2)N(C)C(=O)[C@H](C2CCCC2)N(C)C(=O)C2(CCC2)NC(=O)[C@@H]2C[C@@H](O)CN2C(=O)[C@H](CCc2cc(F)c(C(F)(F)F)c(F)c2)NC(=O)CN(C)C(=O)[C@H](Cc2ccc(C(F)(F)F)cc2)N2CCCCC[C@@H](C2=O)N(C)C(=O)CN(C)C1=O` [PP0871]: in assay [1] (setting [3]), the “NRAS/KRAS (ratio of KD value for NRAS to KD value for KRAS)” value was “B (a compound having 3 or more and less than 10 is denoted as B)”. In assay [2] (setting [4]), the “HRAS/KRAS (ratio of KD value for HRAS to KD value for KRAS)” value is “B (a compound having 3 or more and less than 10 is denoted as B)”.
For the compound `CC[C@H](C)[C@@H]1NC(=O)[C@H](CC2CCCC2)N(C)C(=O)C[C@@H](C(=O)N(C)C)N(C)C(=O)[C@H](C2CCCC2)N(C)C(=O)C2(CCC2)NC(=O)[C@@H]2C[C@@H](C(F)(F)F)CN2C(=O)[C@H](CCc2cc(F)c(C(F)(F)F)c(F)c2)NC(=O)CN(C)C(=O)[C@H](Cc2ccc(F)cc2)N2CC/C=C\C[C@@H](C2=O)N(C)C(=O)CN(C)C1=O` [PP1508], the “NRAS/KRAS (ratio of KD value for NRAS to KD value for KRAS)” value in assay [1] (SPR, GDP-bound NRAS wild-type protein vs GDP-bound KRAS wild-type protein, KD ratio class) is “A (a compound having 10 or more and less than 20 is denoted as A)”. In addition, the “HRAS/KRAS (ratio of KD value for HRAS to KD value for KRAS)” value in assay [2] (SPR, GDP-bound HRAS wild-type protein vs GDP-bound KRAS wild-type protein, KD ratio class) is “A (a compound having 10 or more and less than 20 is denoted as A)”.
In the case of `CC[C@H](C)[C@@H]1NC(=O)[C@H](CC(C)C)N(C)C(=O)C[C@@H](C(=O)N2C3CCC2COC3)N(C)C(=O)[C@H](C2CCCC2)N(C)C(=O)C2(CCCC2)NC(=O)[C@@H]2CCCN2C(=O)[C@H](CCc2cc(F)c(C(F)(F)F)c(F)c2)NC(=O)CN(C)C(=O)[C@H](Cc2ccc(C(F)(F)F)cc2)N2CCCCC[C@@H](C2=O)N(C)C(=O)CN(C)C1=O` [PP0511], in assay [1] (setting [3]), the “NRAS/KRAS (ratio of KD value with respect to NRAS to KD value with respect to KRAS)” value was “A (a compound having 10 or more and less than 20 is denoted as A)”. For the same compound, the “HRAS/KRAS (ratio of KD value with respect to HRAS to KD value with respect to KRAS)” value in assay [2] (setting [4]) is “B (a compound having 3 or more and less than 10 is denoted as B)”.
For `CC[C@H](C)[C@@H]1NC(=O)[C@H](CC(C)C)N(C)C(=O)C[C@@H](C(=O)N2CCOCC2)N(C)C(=O)[C@H](C2CCCC2)N(C)C(=O)C2(CCCC2)NC(=O)[C@@H]2C[C@@H](OC3CCCCO3)CN2C(=O)[C@H](CCc2ccc(C(F)(F)F)c(Cl)c2)NC(=O)CN(C)C(=O)[C@H](Cc2ccc(C)cc2)N(CC)C(=O)CN(C)C(=O)CN(C)C1=O` (some centres unmarked) [PP0068] ([NMeL]I[Sar][Sar][NEtPhe(4-Me)][Sar][hPhe(3-Cl-4-CF3)][Hyp](X51)[Ac5c][NMeGly(cPent)][NMeD]-Morpholide; lactam N-11), the “NRAS/KRAS (ratio of KD value for NRAS to KD value for KRAS)” value in assay [1] (setting [3]) is “C (A compound having a KD ratio of 0.1 or more and less than 3 is denoted as C)”. For the same compound, the “HRAS/KRAS (ratio of KD value for HRAS to KD value for KRAS)” value in assay [2] (setting [4]) is “C (A compound having a KD ratio of 0.1 or more and less than 3 is denoted as C)”.
